Test results taken from US20160038454A1, “INTRAVENOUS FORMULATIONS OF […] AS IMMUNOMODULATORS AND […] AGENTS” (priority 2013, published 2016).
Values after ≈ are worked out from the molar mass of the structure shown.

Assays:
[1] = Conversion to triptolide using human serum; type: in vitro ADME
From the text: (Xia Zhi Lin and Zhen You Lan, Haematologica, 93:14 (2008)).

[2] = PG796(MRx102) solubility in emulsion formulations; type: physicochemical; details: emulsion formulation, aqueous with cosolvent or surfactant or cyclodextrin
Method: Various ratios of the nonionic surfactants polysorbate 80 (a.k.a. Tween 80) and Span 80 were explored, and a formulation was prepared and tested as follows. […] The results of this preliminary experiment were encouraging in that a reasonably high solubility was obtained in a formulation containing almost 70% water.
Emulsion formulations were prepared using a probe sonicator to disperse the oil phase in the aqueous phase to form a creamy opaque suspension.
Typical emulsion formulations consist of 10-30% triglyceride, most commonly SBO, dispersed with 0.5-2% phospholipids in an aqueous phase, which contains glycerin as a tonicity agent. […] Additionally, PEG-400 and ethanol were incorporated into some of the formulations to decrease the polarity of the aqueous phase to enhance solubility. Sodium cholate was included in some formulations as a co-surfactant. Solubility of at least 1 mg/mL was obtained in all of the formulations. In each case some loss of potency was observed after eight days of storage, but the majority of the original potency was maintained.
Pharmaceutical emulsions are typically prepared at neutral to slightly alkaline pH since they are stabilized by electrostatic repulsion between droplets imparted by pH-sensitive anionic surfactants, such as phosphatidyl ethanolamine, free fatty acid salts, and cholate. However, it was possible that this pH range could be suboptimal for the chemical stability of PG796(MRx102). To test this, emulsions were prepared at different pH values ranging from 4 to 8. Buffers were included to control the pH, and the non-pH sensitive surfactant, sodium dodecyl sulfate was used in place of sodium cholate to assure a negative charge even in the low pH emulsions. All of the formulations were reasonably stable for up to 2 weeks at room temperature. […]

Ba/F3-ITD cells = details: mice harboring Ba/F3-ITD cells; Carter et al. 2012; cited from earlier work
MV4-11 cells = test: Synergy with AML drugs in vitro; type: cell-based; details: MV4-11 cells in vitro
From the text: Another consequence of XPB binding is the inhibition of nucleotide excision repair.

NF-κB, Mcl-1 and XIAP = details: cited from earlier work
[3] = emulsion target pH 4.0 (acetate)
[4] = emulsion target pH 5.0 (acetate)
[5] = emulsion target pH 6.0 (histidine)
[6] = emulsion target pH 7.0 (phosphate)

CC(C)[C@]12O[C@H]1[C@@H]1O[C@]13[C@]1(O[C@H]1C[C@H]1c4c(C(=O)c5ccccc5)oc(OC(=O)c5ccccc5)c4CC[C@@]13C)[C@@H]2O [PG796, 18-deoxo-19-dehydro-18-benzoyloxy-19-benzoyl triptolide]
conversion to triptolide in human serum [1]: rapidly and completely converted
solubility at 0 hr [2, 3]: 870 µg/mL (≈ 1530 µM)
solubility at 1 wk [2, 3]: 1000 µg/mL (≈ 1760 µM)
solubility at 2 wk [2, 3]: 848 µg/mL (≈ 1490 µM)
solubility at 24 hr [2, 3]: 917 µg/mL (≈ 1610 µM)
solubility at 0 hr [2, 4]: 1010 µg/mL (≈ 1770 µM)
solubility at 1 wk [2, 4]: 972 µg/mL (≈ 1710 µM)
solubility at 2 wk [2, 4]: 910 µg/mL (≈ 1600 µM)
solubility at 24 hr [2, 4]: 922 µg/mL (≈ 1620 µM)
solubility at 0 hr [2, 5]: 1090 µg/mL (≈ 1920 µM)
solubility at 1 wk [2, 5]: 948 µg/mL (≈ 1670 µM)
solubility at 2 wk [2, 5]: 850 µg/mL (≈ 1490 µM)
solubility at 24 hr [2, 5]: 890 µg/mL (≈ 1570 µM)
solubility at 0 hr [2, 6]: 996 µg/mL (≈ 1750 µM)
solubility at 1 wk [2, 6]: 760 µg/mL (≈ 1340 µM)
solubility at 2 wk [2, 6]: 822 µg/mL (≈ 1450 µM)
solubility at 24 hr [2, 6]: 849 µg/mL (≈ 1490 µM)
solubility at 0 hr ([2]; emulsion target pH 8.0 (Tris)): 929 µg/mL (≈ 1630 µM)
solubility at 1 wk ([2]; emulsion target pH 8.0 (Tris)): 1040 µg/mL (≈ 1830 µM)
solubility at 2 wk ([2]; emulsion target pH 8.0 (Tris)): 930 µg/mL (≈ 1640 µM)
solubility at 24 hr ([2]; emulsion target pH 8.0 (Tris)): 929 µg/mL (≈ 1630 µM)
solubility ([2]; preliminary emulsion: 29.4% GTO, 1.65% Span 80, 0.31% Tween 80, 68.6% water): 681 µg/mL (≈ 1200 µM)
leukemia burden (Ba/F3-ITD cells): greatly decreased
survival time (Ba/F3-ITD cells): increased
synergy with cytarabine (MV4-11 cells): synergy was demonstrated
synergy with idarubicin (MV4-11 cells): synergy was demonstrated
effect on mRNA levels, NF-κB, Mcl-1 and XIAP (NF-κB, Mcl-1 and XIAP): reduced mRNA levels, reduced NF-κB and reduced Mcl-1 and XIAP
